Data taken from the supplement of paper PMC5908809.

Columns and labels:
[1] = tested on: normal NK cells expanded with K562-aAPC; assay: percent inhibition of viability; higher = more inhibition; conditions: 72 h, IL-2 2.5 ng/mL
Protocol: (§1)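 Drug sensitivity and resistance testing on K562-aAPC-expanded normal NK cells: 5 concentrations (10-fold steps over a 10,000-fold range), 72 h at 37 °C, viability by CellTiter-Glo normalised to DMSO and benzethonium chloride controls; DSS from the fitted curve.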

NKL (IL-2 2.5 ng/mL) [2] = assay: as above; conditions: 72 h
NK-92 (IL-2 2.5 ng/mL) [3] = assay: as above; conditions: 72 h
YT (IL-2 2.5 ng/mL) [4] = assay: as above; conditions: 72 h
[5] = tested on: normal primary NK cells, pool 1 (3 donors), resting (IL-2 0 ng/mL); assay: as above; conditions: 72 h
[6] = tested on: normal primary NK cells, pool 2 (3 donors) (IL-2 2.5 ng/mL); assay: as above; conditions: 72 h
KAI3 (IL-2 2.5 ng/mL) [7] = assay: as above; conditions: 72 h
[8] = tested on: normal primary NK cells, pool 1 (3 donors) (IL-2 2.5 ng/mL); assay: as above; conditions: 72 h
[9] = tested on: normal primary NK cells, pool 3 (3 donors) (IL-2 2.5 ng/mL); assay: as above; conditions: 72 h
IMC-1 (IL-2 20 ng/mL) [10] = assay: as above; conditions: 72 h
NK-YS (IL-2 2.5 ng/mL) [11] = assay: as above; conditions: 72 h
DERL-7 (IL-2 2.5 ng/mL) [12] = assay: as above; conditions: 72 h
SNK-6 (IL-2 2.5 ng/mL) [13] = assay: as above; conditions: 72 h
KHYG-1 (IL-2 2.5 ng/mL) [14] = assay: as above; conditions: 72 h
NKL (IL-2 2.5 ng/mL) [15] = assay: drug sensitivity score (DSS) (DSS units); higher = more sensitive; extreme values may be limits of the assay; conditions: 72 h
NK-92 (IL-2 2.5 ng/mL) [16] = assay: as above; conditions: 72 h
YT (IL-2 2.5 ng/mL) [17] = assay: as above; conditions: 72 h
[18] = tested on: normal primary NK cells, pool 1 (3 donors), resting (IL-2 0 ng/mL); assay: as above; conditions: 72 h
[19] = tested on: normal primary NK cells, pool 2 (3 donors) (IL-2 2.5 ng/mL); assay: as above; conditions: 72 h
KAI3 (IL-2 2.5 ng/mL) [20] = assay: as above; conditions: 72 h
[21] = tested on: normal primary NK cells, pool 1 (3 donors) (IL-2 2.5 ng/mL); assay: as above; conditions: 72 h
[22] = tested on: normal primary NK cells, pool 3 (3 donors) (IL-2 2.5 ng/mL); assay: as above; conditions: 72 h
IMC-1 (IL-2 20 ng/mL) [23] = assay: as above; conditions: 72 h
NK-YS (IL-2 2.5 ng/mL) [24] = assay: as above; conditions: 72 h
DERL-7 (IL-2 2.5 ng/mL) [25] = assay: as above; conditions: 72 h
SNK-6 (IL-2 2.5 ng/mL) [26] = assay: as above; conditions: 72 h
KHYG-1 (IL-2 2.5 ng/mL) [27] = assay: as above; conditions: 72 h
[28] = tested on: normal NK cells expanded with K562-aAPC; assay: as above; conditions: 72 h; IL-2 2.5 ng/mL
Protocol: as §1

COc1cc(Nc2c(C#N)cnc3cc(OCCCN4CCN(C)CC4)c(OC)cc23)c(Cl)cc1Cl [Bosutinib] (max concentration tested 10000 nM)
percent inhibition of viability [%]
Conditions | 1 nM | 10 nM | 100 nM | 1000 nM | 10000 nM
DERL-7 (IL-2 2.5 ng/mL) [12] | 1.55 | 6.21 | 8.26 | 37.4 | 100
IMC-1 (IL-2 20 ng/mL) [10] | -6.46 | 0.66 | -10.5 | -9.81 | 96.6
KAI3 (IL-2 2.5 ng/mL) [7] | 8.38 | 12 | 3.26 | 31.6 | 97.2
KHYG-1 (IL-2 2.5 ng/mL) [14] | -3.69 | 1.01 | -1.05 | 26.2 | 96.2
NK-92 (IL-2 2.5 ng/mL) [3] | -0.68 | -2.8 | -0.62 | 22.4 | 97.7
NK-YS (IL-2 2.5 ng/mL) [11] | -4.4 | -3.22 | -2.75 | 2.53 | 96.7
NKL (IL-2 2.5 ng/mL) [2] | -12.2 | -8.59 | -6.88 | 0.83 | 95.5
SNK-6 (IL-2 2.5 ng/mL) [13] | 6.03 | 14.6 | -18.2 | -17.4 | 99.7
YT (IL-2 2.5 ng/mL) [4] | 1.55 | 1.24 | 2.37 | 15.2 | 97.2
[1] | 4.72 | 2.21 | 15.7 | 3.76 | 99.9
[5] | -6.19 | -3.78 | 1.15 | 58.5 | 99.3
[6] | -12.2 | -5.59 | -2.85 | 25.5 | 98.1
[8] | -9.61 | -1.56 | 4.38 | 20.6 | 100
[9] | 0.05 | -0.81 | 10.8 | -5.33 | 99.8

Conditions | drug sensitivity score
DERL-7 (IL-2 2.5 ng/mL) [25] | 9.96
IMC-1 (IL-2 20 ng/mL) [23] | 4.71
KAI3 (IL-2 2.5 ng/mL) [20] | 9.81
KHYG-1 (IL-2 2.5 ng/mL) [27] | 9.26
NK-92 (IL-2 2.5 ng/mL) [16] | 8.9
NK-YS (IL-2 2.5 ng/mL) [24] | 5.71
NKL (IL-2 2.5 ng/mL) [15] | 5.43
SNK-6 (IL-2 2.5 ng/mL) [26] | 4.57
YT (IL-2 2.5 ng/mL) [17] | 7.9
[18] | 12.4
[19] | 9.3
[21] | 8.82
[22] | 5.14
[28] | 6.07

CO[C@@H]1[C@H](N(C)C(=O)c2ccccc2)C[C@H]2O[C@]1(C)n1c3ccccc3c3c4c(c5c6ccccc6n2c5c31)C(=O)NC4 [Midostaurin] (max concentration tested 10000 nM)
percent inhibition of viability [%]
Conditions | 1 nM | 10 nM | 100 nM | 1000 nM | 10000 nM
DERL-7 (IL-2 2.5 ng/mL) [12] | 2.78 | 1.24 | 18.5 | 93.3 | 98.4
IMC-1 (IL-2 20 ng/mL) [10] | -6.1 | -6.16 | -11.8 | 87.9 | 100
KAI3 (IL-2 2.5 ng/mL) [7] | 0.66 | 3.14 | 21.1 | 89.4 | 91.2
KHYG-1 (IL-2 2.5 ng/mL) [14] | 2.07 | -3.07 | 17 | 105 | 99.1
NK-92 (IL-2 2.5 ng/mL) [3] | 7.3 | 4.05 | 7.33 | 80.9 | 89.5
NK-YS (IL-2 2.5 ng/mL) [11] | 1.77 | 2.14 | 11.2 | 65.2 | 78.6
NKL (IL-2 2.5 ng/mL) [2] | -4.72 | -9.81 | 28.3 | 79.7 | 77.5
SNK-6 (IL-2 2.5 ng/mL) [13] | -0.77 | 8.75 | 42.7 | 95.2 | 97.3
YT (IL-2 2.5 ng/mL) [4] | 4.08 | 0.3 | 9.56 | 51.4 | 69.3
[1] | -0.81 | -0.07 | 14.2 | 93.4 | 95.7
[5] | -2.01 | -12 | 7.17 | 29 | 62.3
[6] | -14.8 | -10.1 | -0.23 | 76.7 | 85.8
[8] | -13 | -12.2 | 25.8 | 79.6 | 88.2
[9] | -7.31 | -6.65 | 1.51 | 63.5 | 83

Conditions | drug sensitivity score
DERL-7 (IL-2 2.5 ng/mL) [25] | 19.5
IMC-1 (IL-2 20 ng/mL) [23] | 15.6
KAI3 (IL-2 2.5 ng/mL) [20] | 19.3
KHYG-1 (IL-2 2.5 ng/mL) [27] | 20.9
NK-92 (IL-2 2.5 ng/mL) [16] | 15.8
NK-YS (IL-2 2.5 ng/mL) [24] | 13.5
NKL (IL-2 2.5 ng/mL) [15] | 18.5
SNK-6 (IL-2 2.5 ng/mL) [26] | 22.2
YT (IL-2 2.5 ng/mL) [17] | 10.8
[18] | 6.7
[19] | 14
[21] | 18
[22] | 12.1
[28] | 19.3
